Consider one compound from patent US11324698B2, “Sterically stabilized carrier for aerosol therapeutics, compositions and methods for treating the respiratory tract of a mammal” (VGSK Technologies, Inc., priority 2003, dated 2022).

One data set concerns sensitized mice. In words: Preliminary dose-response study of daily nebulized BUD in sensitized mice. Type of data set: in vivo. The settings on record: daily nebulization. The procedure:
The dose of BUD chosen was based on preliminary dose-response studies with 5 to 50 μg of BUD as follows.
Each day, 5, 10, 15, 20 or 50 μg of BUD was administered via nebulization to groups of sensitized mice, and the dose-dependent effects on the inflammatory parameters were evaluated.

The conditions of data set [1]: BUD alone; cited from earlier work.

For the compound `CCCC1O[C@@H]2C[C@H]3[C@@H]4CCC5=CC(=O)C=C[C@]5(C)[C@H]4[C@@H](O)C[C@]3(C)[C@]2(C(=O)CO)O1` (stereo partly drawn) [Daily BUD, budesonide], the “toxicity to the spleen, liver, bone morrow or gastrointestinal tract” value in the data set on sensitized mice (20 μg/ml dose of BUD, histopathologic examination) is “without evidence of toxicity”. Moreover, the “granulomas or abnormalities in tissues” value in the data set with sensitized mice (preliminary dose-response study) was “no granulomas or abnormalities in any of the tissues evaluated”. Also, in data set [1], the “effective life in the lungs” value was “no more than one day”.
